Test results reported in patent US8859599B2, “Androgen receptor modulating compounds, preparation and uses thereof” (priority 2009, dated 2014).
Read-outs that look alike come from different tables or passages of the source.

What was measured:
[1] = target: T1, human androgen receptor (hAR) (Homo sapiens, UniProt P10275); assay: hAR transactivation assay (ARE-luciferase reporter) in Cos-7 cells; assay type: cell-based; conditions: for inhibition of androgen-induced transcriptional activation (antagonistic activity): cells challenged with 10 nM R1881, compound at 10 μM
T1 construct: The cDNA coding hAR was cloned into the pSG5 expression vector as reported previously; expressed in transfected cells; host or cells: Cos-7 cells transiently transfected with pSG5-hAR
T1 sequence (P10275 1-920): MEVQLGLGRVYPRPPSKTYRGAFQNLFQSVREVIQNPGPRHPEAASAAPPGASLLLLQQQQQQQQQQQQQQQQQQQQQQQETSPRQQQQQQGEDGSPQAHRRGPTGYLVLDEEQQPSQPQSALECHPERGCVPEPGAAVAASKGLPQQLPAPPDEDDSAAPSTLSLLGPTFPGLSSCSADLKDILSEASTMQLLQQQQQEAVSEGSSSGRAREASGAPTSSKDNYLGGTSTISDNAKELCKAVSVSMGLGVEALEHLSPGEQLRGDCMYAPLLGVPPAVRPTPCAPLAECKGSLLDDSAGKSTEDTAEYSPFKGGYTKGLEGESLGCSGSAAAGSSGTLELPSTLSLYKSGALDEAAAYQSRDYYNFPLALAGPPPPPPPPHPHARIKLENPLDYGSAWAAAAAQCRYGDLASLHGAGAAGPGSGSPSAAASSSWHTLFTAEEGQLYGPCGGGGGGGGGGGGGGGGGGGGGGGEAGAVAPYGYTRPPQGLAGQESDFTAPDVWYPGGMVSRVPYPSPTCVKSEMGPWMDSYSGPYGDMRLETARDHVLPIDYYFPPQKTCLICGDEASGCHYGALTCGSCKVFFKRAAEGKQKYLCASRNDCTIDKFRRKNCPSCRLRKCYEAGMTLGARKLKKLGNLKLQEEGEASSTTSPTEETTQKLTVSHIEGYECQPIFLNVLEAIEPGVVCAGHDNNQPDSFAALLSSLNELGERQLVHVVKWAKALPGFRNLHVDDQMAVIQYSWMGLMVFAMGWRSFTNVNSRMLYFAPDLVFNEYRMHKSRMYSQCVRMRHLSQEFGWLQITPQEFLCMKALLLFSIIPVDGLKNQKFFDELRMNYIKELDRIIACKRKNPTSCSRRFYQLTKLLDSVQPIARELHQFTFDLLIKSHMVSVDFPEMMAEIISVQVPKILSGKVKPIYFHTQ
Procedure: The cDNA coding hAR was cloned into the pSG5 expression vector as reported previously [Chang, C. S., et al., Science (1988)240:324-326]. The 3416 construct (ARE-Luc), containing four copies of the wild-type slp-HRE2 (5′-TGGTCAgccAGTTCT-3′) (SEQ ID No. 1) was cloned in the NheI site in pTK-TATA-Luc [Verrijdt, G. et al., J. Biol. Chem. (2000)275:12298-12305].
For androgen-stimulated transcriptional analysis, 32×10^4 Cos-7 cells were plated in phenol red-free DMEM containing 5% charcoal-stripped serum. After 48 h, the cells were transfected by Superfect (Qiagen) with 0.3 μg of 3416-pTK-TATA-Luc construct, together with 1.5 μg of either pSG5-empty plasmid or pSG5-hAR expressing plasmid. After 18 h, transfected cells were stimulated for 24 h with 10 nM of the synthetic androgen, R1881 (from Perkin-Elmer; dissolved in 0.001% ethanol, final concentration), in the absence or presence of the indicated concentrations of synthetic compounds. When indicated, the synthetic compounds were added alone to the cell medium. […] It was dissolved in 0.001% (final concentration) ethanol. Control cells were treated with the vehicle alone. Lysates were prepared and the luciferase activity was measured using a luciferase assay system (Promega). The results were corrected using CH110-expressed beta-galactosidase activity (Amersham Biosciences) and luciferase activity was expressed as fold induction. Results were obtained from two or three different experiments, each performed in duplicate. Mean and SEM are shown.

LNCaP cells = assay: Sulforhodamine B (SRB) in vitro chemosensitivity assay on LNCaP cells; assay type: cell-based; conditions: for cytostatic effect: suppression of cell growth: highest concentration tested
Procedure: Sulforhodamine B (SRB) assay was used according to the method by Skehan et al. (JNCI, 1990). Briefly, cells were collected by trypsinization, counted and plated at a density of 5,000 cells/well in 96-well flat-bottomed microtiter plates (100 μl of cell suspension/well). In the chemosensitivity assay, experiments were run in octuplicate, and each experiment was repeated three times. The optical density (OD) of cells was determined at a wavelength of 490 nm by a colorimetric plate reader.
Growth inhibition and cytocidal effect of drugs were calculated according to the formula reported by Monks et al. (JNCI, 1991): [(ODtreated−ODzero)/(ODcontrol−ODzero)]×100%, when ODtreated is > to ODzero. If ODtreated is above ODzero, treatment has induced a cytostatic effect, whereas if ODtreated is below ODzero, cell killing has occurred. The ODzero depicts the cell number at the moment of drug addition, the ODcontrol reflects the cell number in untreated wells and the ODtreated reflects the cell number in treated wells on the day of the assay. TUNEL Assay
The authors examined the antitumour activity of the compounds for which the synthesis is described above, in the hormone-sensitive prostate cancer cell line LNCaP. (R)-Bicalutamide and the novel compounds were tested at the increasing concentrations of […]. The highest dose used was chosen on the basis of the clinically achievable peak plasma concentration reported in the literature for bicalutamide (Cockshott I D. Clin Pharmacokinet. 2004; 43 (13) 855-78).
After 144-hr exposure time, the cytotoxic effect of the molecules was calculated according to the method of Monks et al. (Monks A, et al., J. Nat. Cancer Inst. 1991; 83: 757-66).

LNCaP-AR cells = assay: TUNEL assay of apoptotic cells in LNCaP-AR; assay type: cell-based, human; conditions: 144 h, 20.0 μM
[2] = Homo sapiens, LNCaP cells, 144 h exposure, read-out: Growth inhibition (GI50)
[3] = LNCaP cells, 144 h exposure, n.r. = not reached
[4] = Homo sapiens, LNCaP, 144 h, read-out: Growth inhibition (GI50), LNCaP cells, 144 h exposure

## N#Cc1ccc(OCC(N)(Cc2ccccc2)C(=O)Nc2ccc(C#N)c(C(F)(F)F)c2)cc1 (stereo in doubt) [(R)-7c]
[1]; Casodex at 10 μM
  agonistic activity in presence of Casodex: inhibited
[1]; range between 10-100 nM
  increase of transcriptional activity of AR, compound alone: about 15 fold

## N#Cc1ccc(NC(=O)C(N)(Cc2ccccc2)CS(=O)(=O)c2ccc(F)cc2)cc1C(F)(F)F (stereo in doubt) [(S)-8]
LNCaP cells
  cytocidal effects by 50% (LC50): n.r.
LNCaP cells; [2]
  GI50: 10.4 µM
LNCaP cells; LNCaP cells, 144 h
  cytostatic effect: suppression of cell growth: suppress completely the cell growth

## N#Cc1ccc(NC(=O)C(N)(CS(=O)(=O)c2ccc(F)cc2)c2ccccc2)cc1C(F)(F)F (stereo in doubt) [(S)-9]
LNCaP cells; LNCaP cells, 144 h
  cytostatic effect: suppression of cell growth: suppress completely the cell growth
LNCaP cells; [3]
  cytocidal effects by 50% (LC50): n.r.
LNCaP cells; read-out: Growth inhibition (GI50), LNCaP cells, 144 h exposure
  GI50: 4 µM

## N#Cc1ccc(NC(=O)[C@](N)(Cc2ccccc2)CS(=O)(=O)c2ccc(F)cc2)cc1C(F)(F)F [(R)-8, (R)-2-amino-2-benzyl-N-(4-cyano-3-(trifluoromethyl)phenyl)-3-(4-fluorophenylsulfonyl)propanamide]
LNCaP cells; LNCaP cells, 144 h exposure
  cytocidal (cell killing) activity: cytocidal activity

## N#Cc1ccc(N2C(=O)[C@](Cc3ccccc3)(CS(=O)(=O)c3ccc(F)cc3)NC2=S)cc1C(F)(F)F [(R)-11]
LNCaP cells
  cytocidal effects by 50% (LC50): n.r.
LNCaP cells; [2]
  GI50: 8.5 µM
LNCaP cells; LNCaP cells, 144 h exposure
  cytocidal (cell killing) activity: cytocidal activity
[1]; authors' experimental conditions
  agonistic activity, compound alone: does not show agonistic activity
[1]
  inhibition of androgen-induced transcriptional activation (antagonistic activity): strong inhibition

## CS(=O)(=O)N[C@@](CS(=O)(=O)c1ccc(F)cc1)(C(=O)Nc1ccc(C#N)c(C(F)(F)F)c1)c1ccccc1 [(R)-12]
[1]
  inhibition of androgen-induced transcriptional activation (antagonistic activity): does not interfere
[1]; range between 10 nM-10 μM
  agonistic activity, compound alone: does not show agonistic activity

## N#Cc1ccc(N2C(=O)[C@@](CS(=O)(=O)c3ccc(F)cc3)(c3ccccc3)NC2=S)cc1C(F)(F)F [(R)-13, (R)-4-(4-((4-fluorophenylsulfonyl)methyl)-5-oxo-4-phenyl-2-thioxoimidazolidin-1-yl)-2-(trifluoromethyl)benzonitrile]
LNCaP cells
  cytocidal effects by 50% (LC50): n.r.
LNCaP cells; [2]
  GI50: 14 µM

## Cc1ccc(S(=O)(=O)N[C@@](C)(CS(=O)(=O)c2ccc(F)cc2)C(=O)Nc2ccc(C#N)c(C(F)(F)F)c2)cc1 [(R)-26]
LNCaP cells; [4]
  GI50: 9.3 µM
LNCaP cells; [3]
  cytocidal effects by 50% (LC50): n.r.
LNCaP-AR cells
  apoptosis induction in the LNCaP derivative cell line versus LNCaP: more active
[1]
  inhibition of androgen-induced transcriptional activation (antagonistic activity): does not show antagonistic activity

## C[C@@]1(CS(=O)(=O)c2ccc(F)cc2)NC(=S)N(c2ccc(C#N)c(C(F)(F)F)c2)C1=O [(R)-27]
LNCaP cells
  cytocidal effects by 50% (LC50): n.r.
LNCaP cells; [2]
  GI50: 15.2 µM

## C[C@@]1(CS(=O)(=O)c2ccc(F)cc2)NC(=O)N(c2ccc(C#N)c(C(F)(F)F)c2)C1=O [(R)-28, (R)-4-(4-((4-fluorophenylsulfonyl)methyl)-4-methyl-2,5-dioxoimidazolidin-1-yl)-2-(trifluoromethyl)benzonitrile]
LNCaP cells
  cytocidal effects by 50% (LC50): n.r.
LNCaP cells; [2]
  GI50: 14.9 µM

## C[C@]1(CS(=O)(=O)c2ccc(F)cc2)C(=O)N(c2ccc(C#N)c(C(F)(F)F)c2)C(=O)N1S(C)(=O)=O [(R)-29]
LNCaP cells
  cytocidal effects by 50% (LC50): n.r.
LNCaP cells; [2]
  GI50: 12.3 µM

## N#Cc1ccc(OC[C@]2(Cc3ccccc3)NC(=O)N(c3ccc(C#N)c(C(F)(F)F)c3)C2=O)cc1 [(S)-14e]
[1]; 100 nM
  increase of transcriptional activity of AR, compound alone: about 55 fold

## C[C@@](N)(CS(=O)(=O)c1ccc(F)cc1)C(=O)Nc1ccc(C#N)c(C(F)(F)F)c1 [(S)-23]
LNCaP cells; [4]
  GI50: 9.4 µM
LNCaP cells; [3]
  cytocidal effects by 50% (LC50): n.r.

## C[C@]1(CS(=O)(=O)c2ccc(F)cc2)NC(=O)N(c2ccc(C#N)c(C(F)(F)F)c2)C1=O [(S)-28]
LNCaP cells
  cytocidal effects by 50% (LC50): n.r.
LNCaP cells; [2]
  GI50: 1.8 µM

## C[C@@]1(CS(=O)(=O)c2ccc(F)cc2)C(=O)N(c2ccc(C#N)c(C(F)(F)F)c2)C(=O)N1S(C)(=O)=O [(S)-29]
LNCaP cells
  cytocidal effects by 50% (LC50): n.r.
LNCaP cells; [2]
  GI50: 12.5 µM

## C[C@@]1(CS(=O)(=O)c2ccc(F)cc2)C(=O)N(c2ccc(C#N)c(C(F)(F)F)c2)C(=S)N1S(C)(=O)=O [(S)-30]
LNCaP cells
  cytocidal effects by 50% (LC50): n.r.
LNCaP cells; LNCaP cells, 144 h exposure
  Growth inhibition (GI50): n.r.

## C[C@]1(CS(=O)(=O)c2ccc(F)cc2)N=C(SS(C)(=O)=O)N(c2ccc(C#N)c(C(F)(F)F)c2)C1=O [(S)-31]
LNCaP cells
  cytocidal effects by 50% (LC50): n.r.
LNCaP cells; LNCaP cells, 144 h exposure
  Growth inhibition (GI50): n.r.

## N#Cc1ccc(NC(=O)[C@](N)(Cc2ccc(F)cc2)c2ccccc2)cc1C(F)(F)F [(S)-36]
LNCaP cells
  cytocidal effects by 50% (LC50): n.r.
LNCaP cells; [2]
  GI50: 4.3 µM
LNCaP cells; LNCaP cells, 144 h
  cytostatic effect: suppression of cell growth: suppress completely the cell growth

## C[C@]1(O)CC[C@H]2[C@@H]3CCC4=CC(=O)CCC4=C3C=C[C@@]21C [R1881, methyltrienolone-17β-hydroxy-17-methyl-estra-4,9.11-trien-3-one, reference compound]
[1]; 10 nM, Cos-7 cells, ARE-reporter gene
  increase of AR-mediated transcriptional activation: about 11 fold
